From patent publication EP1018003B1, “MODULATORS OF DNA CYTOSINE-5 METHYLTRANSFERASE AND METHODS FOR USE THEREOF” (The Regents of the University of California, priority 1997, dated 1999)

Tests used:
DCMTase = target: T1, DCMTase (Mus musculus, UniProt P13864); experiment: Steady-state kinetic assays (methyl transfer from tritiated AdoMet to DNA); format: biochemical; design: key: C, competitive; NC, noncompetitive; UC, uncompetitive inhibition; conditions: product inhibition
T1 construct: a highly homogeneous, unproteolyzed preparation of DCMTase from mouse erythroleukemia cells (MEL); endogenous in cells; host or cells: mouse erythroleukemia (MEL) cells; endogenous enzyme purified per Xu et al. 1995
Method: Single-stranded DNA was heated to 90 °C and quick cooled on ice, prior to initiation of the reaction. Freeze-thawed DNA produced equivalent results. Incubations were at 37 °C for 60 minutes. […] The reaction was stopped after 60 minutes by transferring 20 μL of the reaction onto a DE 81 filter paper that was processed as described (Flynn et al., 1996). The radioactivity above the background, determined from assays without added poly(dI·dC:dI·dC), was converted to initial velocities and expressed as picomoles of methyl groups transferred to poly(dI·dC:dI·dC) per hour and plotted in double reciprocal form. […] Incubations were at 37 °C for 60 minutes. […] The GC-box b concentrations were: diamonds, 0; circles, 0.75 μM; triangles, 1.5 μM; squares, 5.0 μM. Incubations were at 37 °C for 60 minutes. […] Incubations were at 37 °C for 60 minutes. […] Incubations were at 37 °C for 60 minutes. […] The AdoHcy concentrations were: squares, 0; diamonds, 0.75 μM; circles, 1.5 μM; triangles, 3.0 μM; notched squares, 6.0 μM. Incubations were at 37 °C for 60 minutes. […] Incubations were at 37 °C for 60 minutes. […] The AdoHcy concentrations were: squares, 0; diamonds, 15 μM; circles, 30 μM. […] The standard errors associated with fitted parameters and graphical analysis of the experimental data scattered around the calculated best fit lines were also considered in making an assignment.

[1] = substrate: C[S+](CC[C@H](N)C(=O)O)C[C@H]1O[C@@H](n2cnc3c(N)ncnc32)[C@H](O)[C@@H]1O; experiment: purified protein, by the assay type; conditions: other: true Michaelis constant, equation 2 (sequential mechanism); 20 nM DCMTase; pH 8.0

Row | Type of Inhibition (DCMTase; varied substrate AdoMet, fixed substrate IC) | Type of Inhibition (DCMTase; varied substrate IC, fixed substrate AdoMet) | Molecule | Km [1] [µM]
1 | C | NC/UC | Nc1ncnc2c1ncn2[C@@H]1O[C@H](CSCC[C@H](N)C(=O)O)[C@@H](O)[C@H]1O [AdoHcy, S-adenosyl-L-homocysteine] | –
2 | – | – | DCMTase (Mus musculus) (protein) MPARTAPARVPALASPAGSLPDHVRRRLKDLERDGLTEKECVREKLNLLHEFLQTEIKSQLCDLETKLHKEELSEEGYLAKVKSLLNKDLSLENGTHTLTQKANGCPANGSRPTWRAEMADSNRSPRSRPKPRGPRRSKSDSDTLSVETSPSSVATRRTTRQTTITAHFTKGPTKRKPKEESEEGNSAESAAEERDQDKKRRVVDTESGAAAAVEKLEEVTAGTQLGPEEPCEQEDDNRSLRRHTRELSLRRKSKEDPDREARPETHLDEDEDGKKDKRSSRPRSQPRDPAAKRRPKEAEPEQVAPETPEDRDEDEREEKRRKTTRKKLESHTVPVQSRSERKAAQSKSVIPKINSPKCPECGQHLDDPNLKYQQHPEDAVDEPQMLTSEKLSIYDSTSTWFDTYEDSPMHRFTSFSVYCSRGHLCPVDTGLIEKNVELYFSGCAKAIHDENPSMEGGINGKNLGPINQWWLSGFDGGEKVLIGFSTAFAEYILMEPSKEYEPIFGLMQEKIYISKIVVEFLQNNPDAVYEDLINKIETTVPPSTINVNRFTEDSLLRHAQFVVSQVESYDEAKDDDETPIFLSPCMRALIHLAGVSLGQRRATRRVMGATKEKDKAPTKATTTKLVYQIFDTFFSEQIEKYDKEDKENAMKRRRCGVCEVCQQPECGKCKACKDMVKFGGTGRSKQACLKRRCPNLAVKEADDDEEADDDVSEMPSPKKLHQGKKKKQNKDRISWLGQPMKIEENRTYYQKVSIDEEMLEVGDCVSVIPDDSSKPLYLARVTALWEDKNGQMMFHAHWFCAGTDTVLGATSDPLELFLVGECENMQLSYIHSKVKVIYKAPSENWAMEGGTDPETTLPGAEDGKTYFFQLWYNQEYARFESPPKTQPTEDNKHKFCLSCIRLAELRQKEMPKVLEQIEEVDGRVYCSSITKNGVVYRLGDSVYLPPEAFTFNIKVASPVKRPKKDPVNETLYPEHYRKYSDYIKGSNLDAPEPYRIGRIKEIHCGKKKGKVNEADIKLRLYKFYRPENTHRSYNGSYHTDINMLYWSDEEAVVNFSDVQGRCTVEYGEDLLESIQDYSQGGPDRFYFLEAYNSKTKNFEDPPNHARSPGNKGKGKGKGKGKGKHQVSEPKEPEAAIKLPKLRTLDVFSGCGGLSEGFHQAGISETLWAIEMWDPAAQAFRLNNPGTTVFTEDCNVLLKLVMAGEVTNSLGQRLPQKGDVEMLCGGPPCQGFSGMNRFNSRTYSKFKNSLVVSFLSYCDYYRPRFFLLENVRNFVSYRRSMVLKLTLRCLVRMGYQCTFGVLQAGQYGVAQTRRRAIILAAAPGEKLPLFPEPLHVFAPRACQLSVVVDDKKFVSNITRLSSGPFRTITVRDTMSDLPEIQNGASNSEIPYNGEPLSWFQRQLRGSHYQPILRDHICKDMSPLVAARMRHIPLFPGSDWRDLPNIQVRLGDGVIAHKLQYTFHDVKNGYSSTGALRGVCSCAEGKACDPESRQFSTLIPWCLPHTGNRHNHWAGLYGRLEWDGFFSTTVTNPEPMGKQGRVLHPEQHRVVSVRECARSQGFPDSYRFFGNILDRHRQVGNAVPPPLAKAIGLEIKLCLLSSARESASAAVKAKEEAATKD | 1.4 ± 0.2
